Results reported in publication PMC12224983, “Isoquercitrin Alleviates Diabetic Nephropathy by Inhibiting STAT3 Phosphorylation and Dimerization” (Advanced Science, 2025).

Molecular target: T1, signal transducer and activator of transcription 3 (STAT3) (Homo sapiens, UniProt P40763)
T1 construct: Wild-type STAT3 proteins
Test: SPR (BIAcore T200, STAT3 immobilized on CM5 chip); supported by pull-down, proteome microarray and CETSA
Type: binding

T1 sequence (P40763 2-770): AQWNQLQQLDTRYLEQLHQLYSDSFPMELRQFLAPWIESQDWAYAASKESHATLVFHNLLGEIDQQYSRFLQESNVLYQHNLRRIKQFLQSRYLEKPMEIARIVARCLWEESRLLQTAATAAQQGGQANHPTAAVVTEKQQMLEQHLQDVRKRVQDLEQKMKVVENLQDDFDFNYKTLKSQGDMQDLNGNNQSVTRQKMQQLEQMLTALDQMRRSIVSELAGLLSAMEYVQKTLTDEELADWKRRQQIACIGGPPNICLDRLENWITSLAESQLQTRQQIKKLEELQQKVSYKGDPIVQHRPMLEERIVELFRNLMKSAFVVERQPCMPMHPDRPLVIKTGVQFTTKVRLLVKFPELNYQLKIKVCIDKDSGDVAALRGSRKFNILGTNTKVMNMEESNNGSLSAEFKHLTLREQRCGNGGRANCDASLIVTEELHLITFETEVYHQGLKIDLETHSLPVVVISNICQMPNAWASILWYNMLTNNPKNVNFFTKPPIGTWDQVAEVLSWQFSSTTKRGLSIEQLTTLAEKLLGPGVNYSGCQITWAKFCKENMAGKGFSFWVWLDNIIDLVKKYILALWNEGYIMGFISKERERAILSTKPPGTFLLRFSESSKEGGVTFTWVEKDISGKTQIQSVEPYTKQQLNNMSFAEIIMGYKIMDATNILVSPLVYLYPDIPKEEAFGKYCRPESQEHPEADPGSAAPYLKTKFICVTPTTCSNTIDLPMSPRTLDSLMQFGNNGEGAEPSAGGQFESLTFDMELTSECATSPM

## O=c1c(O[C@@H]2O[C@H](CO)[C@@H](O)[C@H](O)[C@H]2O)c(-c2ccc(O)c(O)c2)oc2cc(O)cc(O)c12 [Isoquercitrin]
  Kd: 2860 nM
